The values that follow are results of earlier work, collected in patent US20060193824A1, “Methods for the treatment of infectious and inflammatory airway diseases” (priority 2005, published 2006).

The subject of data set [1] is human airways.
The subject of data set [2] is human airways. The source holds these as a separate data set.
The test system of data set [3] is respiratory epithelial cells.
Data set [4] has as its system normal pancreatic cell lines. The following applies: extracellular ATP.

As for `FC(F)(F)C(F)(F)C(F)(F)C(F)(F)C(F)(F)C(F)(F)C(F)(F)C(F)(F)Br` [perflubron, perfluorooctyl bromide], the mucin secretion entry in the data set with ferret trachea is “stimulates mucin secretion”. With `O=C(O)CNC(=O)C(CS)Cc1ccccc1` (centres unmarked) [Thiorphan], in the data set on mucin release, the mucin release entry is recorded as “stimulate mucin release”. In the case of `NCCc1c[nH]cn1` [Histamine], in the data set with human airways [1], the mucous glycoprotein release entry is “stimulates mucous glycoprotein release”. In the case of `CCCCC/C=C\C/C=C\C/C=C\C/C=C\CCCC(=O)O` [Arachidonic acid], in the data set with human airways [2], the mucin release result is reported as “release mucin from human airways”. With `CC(C)C[C@H](NP(=O)(O)O[C@@H]1O[C@@H](C)[C@H](O)[C@@H](O)[C@H]1O)C(=O)N[C@@H](Cc1c[nH]c2ccccc12)C(=O)O` [phosphoramidon], in the data set with mucin release, the mucin release entry was “stimulate mucin release”. Consider `CC(C)C[C@H](NC(=O)C(CS)Cc1ccccc1)C(=O)O` (some centres unmarked) [leucine-thiorphan], for which, in the data set with mucin release, the mucin release result is recorded as “stimulate mucin release”.

Take `C[N+](C)(C)CCOC(N)=O` [carbachol]: the mucin secretion entry in the data set on mucin secretion is listed as “effective to stimulate mucin secretion”.

`CC(=O)OC(C)C[N+](C)(C)C` (centres unmarked) [methacholine]: the mucin secretion result in the data set with mucin secretion is reported as “effective to stimulate mucin secretion”. Regarding `CC(=O)N[C@H]1C(O)O[C@H](CO)[C@@H](O)[C@@H]1O` (some centres unmarked) [N-acetyl-glucosamine], the mucin release result with GI tract was “stimulate mucin release in the GI tract”. As for `CC(C[N+](C)(C)C)OC(N)=O` (centres unmarked) [bethanechol], the mucin secretion result in the data set on mucin secretion is on record as “effective to stimulate mucin secretion”. With Interleukin 1, the mucus secretagogue activity entry with mucus secretion was “mucus secretagogue”.

Regarding Tumor necrosis factor alpha, the MUC5AC release entry in data set [3] is recorded as “stimulate MUC5AC release”. Consider “Epidermal growth factor: Epidermal growth factor, EGF, which can be obtained from Sigma (NSDSECPLSHDGYCLHDGVCMYIEALDKYACNCVVGYIGERCQYRDLKWWELR; Epidermal growth factor; UniProt P01133 971-1023, looked up)”, for which, in the data set on mucin production, the mucin production entry was “effective to stimulate mucin production”. Regarding `Nc1ncnc2c1ncn2[C@@H]1O[C@H](COP(=O)(O)OP(=O)(O)OP(=O)(O)O)[C@@H](O)[C@H]1O` [ATP], the mucin protein secretion entry in data set [4] is “rapidly increased mucin protein secretion”.
